ChEMBL document CHEMBL1134196, “Oxo-piperazine derivatives of N-arylpiperazinones as inhibitors of farnesyltransferase” (Bioorg Med Chem Lett, 2001)
pIC50: −log10 of the molar value.

Legend:
[1] = Partition coefficient (logP); type: physicochemical; settings: octanol/water
Rat1 [2] = assay: Inhibition of RAT1 v-Ha-ras-transformed cell growth in soft agar; type: functional; settings: Rattus norvegicus
[3] = biological target: Protein farnesyltransferase (Homo sapiens, UniProt P49354+P49356); assay: Inhibition of [3H]FPP incorporation into recombinant Ras-CVIM by human farnesyl transferase; type: protein-complex assay
[4] = Maximal plasma concentration required for pharmacokinetic data in dogs at dose of 1 mg/kg perorally; type: ADME, organism-based, Canis lupus familiaris; design: dose 1 mg/kg, route oral; settings: dog, po
Rattus norvegicus = organism: Rattus norvegicus; assay: Concentration at which 80% cultured cells remain viable assessed by MTT staining; type: functional
[5] = Pharmacokinetic data in dogs at dose of 1 mg/kg perorally, and the area under curve (AUC) was reported.; type: ADME, organism-based, Canis lupus familiaris; design: dose 1 mg/kg, route oral; settings: dog, in vivo, po
[6] = Half life value of the compound; type: ADME; settings: rat
Rat1 [7] = assay: Inhibition of anchorage-dependent proliferation of RAT1 v-Ha-ras-transformed cells on poly(HEMA); type: functional, cell-based; settings: Rattus norvegicus
[8] = biological target: Geranylgeranyl transferase type I (Homo sapiens, UniProt P49354+P53609); assay: Inhibition of human geranylgeranyltransferase-1; type: protein-complex assay

logP [1]	pIC50 [3]	Cmax [4] [nM]	AUC [5] [µM·h]	half-life [6] [min]	pIC50 [8]	Structure (SMILES)	IC90 (Rat1 [2]) [µM]	IC20 (Rattus norvegicus) [µM]	pIC50 (Rat1 [7])
2.51	4.00	3140	8.58	72		N#Cc1ccc(Cn2cncc2CN2CCN(c3cccc(Cl)c3)CC2=O)cc1	1	> 100	
> 3.5	5.89	960	3.46	138		CCCC[C@H]1CN(c2cccc(C)c2C)CC(=O)N1Cc1cncn1Cc1ccc(C#N)cc1	10	100	5.60
1.24	4.96	3110	12.5	132		N#Cc1ccc(Cn2cncc2CN2CCN(c3cccc(Cl)c3)C(=O)C2=O)cc1	1	> 100	
	4.48					N#Cc1ccc(Cn2cncc2C(=O)N2CCN(c3cccc(Cl)c3)C(=O)C2)cc1	1	> 100	
> 3.7		140	0.15	36		CCCC[C@H]1CN(c2cccc(C)c2C)C(=O)CN1Cc1cncn1Cc1ccc(C#N)cc1	1	50	4.55
2.11		2980	5.3	47.4		N#Cc1ccc(Cn2cncc2CN2CCN(c3cccc(Cl)c3)C(=O)C2)cc1 [L-778123 FREE BASE]	0.1	> 100	
0.46	4.80				< 4.70	N#Cc1ccc(Cn2cncc2CN2CCN(c3ccccc3)C(=O)C2=O)cc1			
2.79						N#Cc1ccc(Cn2cncc2C(=O)N2CCN(c3cccc(Cl)c3)CC2)cc1	0.1	> 100	
3.3	5.52	1950	4.25	54		CCCC[C@H]1CN(c2cccc(C)c2C)C(=O)C(=O)N1Cc1cncn1Cc1ccc(C#N)cc1	1	10	4.82
1.11	4.70	2290	4.43	60		Cc1cccc(N2CCN(Cc3cncn3Cc3ccc(C#N)cc3)C(=O)C2=O)c1C	> 1	10	
0.55	3.02					N#Cc1ccc(Cn2cncc2CN2CC(=O)N(c3ccccc3)CC2=O)cc1			
2	4.96	1060	1.4	30		Cc1cccc(N2CCN(Cc3cncn3Cc3ccc(C#N)cc3)CC2=O)c1C	1	10	4.08
1.32	5.30				5.06	N#Cc1ccc(Cn2cncc2CN2CCN(c3ccccc3)C(=O)C2)cc1			
> 3.4	3.60					N#Cc1ccc(Cn2cncc2CN2CCN(c3cccc(Cl)c3)CC2)cc1	1	25	
